{
  "source": "patent US20210267948A1",
  "about": "“TREATMENT OF CANCER” (CITY OF HOPE, priority 2017, published 2021)",
  "key": {"[1]": {"test_system": "multiple human cancer cell lines", "experiment": "In vitro activity in multiple human cancer cell lines", "format": "cell-based", "conditions": "in most cases"}, "HCC1937 tumors": {"test_system": "HCC1937 tumors", "experiment": "Orthotopic tumor model, HCC1937", "format": "in vivo, mouse", "conditions": "HCC1937 in mammary fat pads, NSG mice, daily oral 400 mg/kg, 28 days", "protocol": "(§1) Orthotopic Tumor Model. Experiments in mice were conducted under a protocol approved by the IACUC of City of Hope. Because HCC1937 and HCC1937+BRCA1 cells form slow-growing tumors, they were implanted using MATRIGEL™ (Becton-Dickinson Biosciences). To establish tumors, 4×10^6 cells in 200 μL serum-free medium containing 50% MATRIGEL™ were injected into the mammary fat pads around the inguinal area of a pair of 8 week old female NSG mice. Once the initial tumors reached 13 mm in diameter, they were dissected out, minced into 3 mm pieces and implanted into the inguinal area of the mammary fat pads of the experimental mice. Tumors were measured over a 28-day period, and for each time point, the student t-test was used to determine the statistical significance between daily gavage with 400 mg/kg COH29 in 30% solutol and corresponding vehicle control. Thep value less than 0.05 (2 sides) was considered to indicate statistical significance"}, "HCC1937+BRCA1 tumors": {"test_system": "HCC1937+BRCA1 tumors", "experiment": "Orthotopic tumor model, HCC1937+BRCA1", "format": "in vivo, mouse", "conditions": "HCC1937+BRCA1 in mammary fat pads, NSG mice, daily oral 400 mg/kg, 28 days", "protocol": "as §1"}, "PARP1 [2]": {"target": "T1, PARP1 (Homo sapiens, UniProt P09874)", "T1 construct": "endogenous in cells; host or cells: HCC1937, HCC1937+BRCA1, UWB1.289 and UWB1.289+BRCA1 human cancer cells (lysates)", "T1 sequence (P09874 whole entry)": "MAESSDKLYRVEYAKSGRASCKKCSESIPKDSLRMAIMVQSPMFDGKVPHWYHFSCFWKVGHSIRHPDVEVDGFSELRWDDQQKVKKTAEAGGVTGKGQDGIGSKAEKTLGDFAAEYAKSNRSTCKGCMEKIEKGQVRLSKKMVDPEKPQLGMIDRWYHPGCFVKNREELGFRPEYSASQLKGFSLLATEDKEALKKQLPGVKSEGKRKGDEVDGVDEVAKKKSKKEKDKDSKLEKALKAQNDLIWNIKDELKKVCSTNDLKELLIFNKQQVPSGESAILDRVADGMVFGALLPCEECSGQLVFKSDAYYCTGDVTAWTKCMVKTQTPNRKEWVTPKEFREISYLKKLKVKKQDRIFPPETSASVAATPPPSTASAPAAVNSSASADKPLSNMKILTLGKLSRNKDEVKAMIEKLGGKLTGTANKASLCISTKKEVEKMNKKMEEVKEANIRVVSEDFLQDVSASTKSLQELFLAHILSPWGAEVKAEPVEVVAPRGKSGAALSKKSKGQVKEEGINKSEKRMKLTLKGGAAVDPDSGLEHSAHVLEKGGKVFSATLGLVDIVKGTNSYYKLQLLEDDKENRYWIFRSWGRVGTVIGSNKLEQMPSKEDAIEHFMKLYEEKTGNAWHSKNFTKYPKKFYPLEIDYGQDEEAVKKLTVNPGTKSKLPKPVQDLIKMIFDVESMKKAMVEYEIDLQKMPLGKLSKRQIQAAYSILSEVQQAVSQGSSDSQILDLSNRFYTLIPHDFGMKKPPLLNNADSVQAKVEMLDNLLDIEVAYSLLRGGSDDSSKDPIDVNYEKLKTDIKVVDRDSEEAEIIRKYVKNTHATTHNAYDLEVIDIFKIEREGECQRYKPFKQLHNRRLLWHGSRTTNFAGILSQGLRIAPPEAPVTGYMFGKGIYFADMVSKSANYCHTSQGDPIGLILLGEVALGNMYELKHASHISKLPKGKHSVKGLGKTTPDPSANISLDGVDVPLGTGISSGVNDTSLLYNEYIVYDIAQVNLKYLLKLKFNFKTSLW", "experiment": "PARP1 Chemiluminescent Assay on lysates of treated cells", "format": "cell-based", "protocol": "The PARP1 activity was determined using the PARP1 Chemiluminescent Assay Kit (BPS Bioscience, San Diego) according to the manufacturer's protocol. Briefly, the ribosylation reaction was carried out with activated DNA in PARP assay buffer using test inhibitor, positive control, substrate control and blank reactions, for 1 hour at 25° C. Detection was by streptavidin-HRP with chemiluminescent substrate A and B read in a luminometer. NZebrafish (Danio rerio) were obtained from zebrafish Core facility of Taipei Medical University and maintained at 28° C. on a 14 h light/10 h dark cycle. Embryos were incubated at 28° C. and different developmental stages were determined as described (25). Wild-type embryos were treated with different concentrations of HU (0, 5, 10, 20, 50 mM) or COH29 (0, 10, 20, 50, 100 μM) at 20 hpf to evaluate the mutagenic effect. Fifteen embryos were treated per well condition. […] Embryos were observed using an Olympus IX70-FLA inverted fluorescence microscope. Images were taken using SPOT digital camera system (Diagnostic Instruments, Sterling Heights, Mich., USA) and assembled with Image) software (26).\nTo determine if COH29 inhibited hPARP1, PARP1 activity was examined in lysates of cells treated with or without COH29 for 4 h, 8 h or 24 h."}, "PARP1 [3]": {"test_system": "PARP1", "experiment": "PARP1 protein expression by Western blot", "format": "cell-based, human", "protocol": "FIGS. 3A-3B. […] (FIG. 3A): the effect of COH29 on PARP1 activity in isogenic pairs of breast (HCC1937) and ovarian (UWB1.289) cancer cell lines expressing mutant or wt BRCA1 (wt=+BRCA1 in each case) was assessed in duplicate using procedures described in Materials & Methods; FIG. 3B: the effect of COH29 on PARP1 protein expression in the isogenic HCC1937/HCC1937+BRCA1 cell lines was assessed by Western blot analysis using anti-human PARP1 antibody as the primary antibody. Loading control is β-actin.\nFor subcellular fractionation, cells were trypsinized and washed with cold PBS solution twice. […] Following centrifugation at 1,000 g for 5 min, the supernatant was collected (i.e., cytoplasmic fraction) and pellets were washed with the same buffer twice. The washed samples were extracted for 40 min on ice with fractionation buffer containing 0.5% NP-40 for nuclear fraction. All the samples were sonicated and clarified by centrifugation at 16,000 g for 15 min. Protein concentrations of all fractions were determined with Bio-Rad Protein Assay (Bio-Rad Laboratories, Hercules, Calif.). Immunoblotting was performed as described previously (21,22). Briefly, equal amounts of boiled protein samples were subjected to SDS-polyacrylamide gel electrophoresis (PAGE) and transferred onto nitrocellulose membranes (Bio-Rad Laboratories). Membranes were blocked for 1 hour in 3% BSA in Tris buffered saline containing 0.05% Tween 20 (TBST) and incubated for 1 hour with primary antibody (1:500 or 1:1000) diluted in TBST containing 1% BSA. After two washes with TBST, membranes were incubated for 1 hour with horseradish peroxidase-conjugated secondary Abs (1:3000 dilution) at room temperature. The immunoblots were visualized on film with the West-Q chemi-luminescence kit (GenDEPOT, Barker, Tex.)."}, "[4]": {"experiment": "GLP toxicity study in rats", "format": "in vivo", "conditions": "for Toxicity: Sprague-Dawley rats, top dose 125 mg/kg", "source_text": "Toxicity studies in rats and dogs at doses equivalent to 10× that dose have not shown toxicity at 10 or 21 days."}, "[5]": {"conditions": "HCC1937 lacking BRCA1, 24 h incubation"}, "[6]": {"conditions": "UWB1.289 lacking BRCA1, 8 h treatment"}},
  "data": [
    {"compound": "O=C(Nc1nc(-c2ccc(O)c(O)c2)c(-c2ccccc2)s1)c1ccc(O)c(O)c1", "note": "[COH29, N-(4-(3,4-dihydroxyphenyl)-5-phenylthiazol-2-yl)-3,4-dihydroxybenzamide]", "values": [
      {"measurement": "IC50", "setting": "[1]", "result": "< 10", "unit": "µM"},
      {"measurement": "growth of tumors vs vehicle", "setting": "HCC1937 tumors", "result": "significantly (p=0.0007) suppressed"},
      {"measurement": "tumor size vs vehicle controls", "setting": "HCC1937+BRCA1 tumors", "result": "not significantly smaller"},
      {"measurement": "PARP1 activity decreased by", "setting": "PARP1 [2]; HCC1937+BRCA1, 24 h incubation", "result": 12.66, "unit": "%"},
      {"measurement": "PARP1 activity, COH29 treated", "setting": "PARP1 [2]; HCC1937+BRCA1, 24 h incubation", "result": 2041097, "unit": "cps"},
      {"measurement": "PARP1 activity decreased by", "setting": "PARP1 [2]; [5]", "result": 41.08, "unit": "%"},
      {"measurement": "PARP1 activity, COH29 treated", "setting": "PARP1 [2]; [5]", "result": 427851, "unit": "cps"},
      {"measurement": "PARP1 activity rose by", "setting": "PARP1 [2]; UWB1.289+BRCA1, 8 h treatment", "result": 46.31, "unit": "%"},
      {"measurement": "PARP1 activity, COH29 treated", "setting": "PARP1 [2]; UWB1.289+BRCA1, 8 h treatment", "result": 2129944, "unit": "cps"},
      {"measurement": "PARP1 activity decreased by", "setting": "PARP1 [2]; [6]", "result": 31.79, "unit": "%"},
      {"measurement": "PARP1 activity, COH29 treated", "setting": "PARP1 [2]; [6]", "result": 774611, "unit": "cps"},
      {"measurement": "PARP1 protein level", "setting": "PARP1 [3]; HCC1937 BRCA1-defective, 24 h", "result": "attenuated PARP1 protein"},
      {"measurement": "PARP1 protein level", "setting": "PARP1 [3]; HCC1937 cells irrespective of BRCA1 status, 4 h", "result": "Little reduction"},
      {"measurement": "Toxicity", "setting": "[4]; 10 days", "result": "none"},
      {"measurement": "Toxicity", "setting": "[4]; 21 days", "result": "none"},
      {"measurement": "NOAEL", "setting": "[4]; Sprague-Dawley, rat, in vivo", "result": 250, "unit": "mg/kg/day"}
    ]}
  ]
}
